From paper PMC11540844, “Enhancing transcription–replication conflict targets ecDNA-positive cancers” (Nature, 2024)
Read-outs that look alike come from different tables or passages of the source.

Columns and labels:
COLO320DM cells = assay: Cell viability / CTG proliferation (CellTiter-Glo); type: cell-based, human; conditions: for IC50: Homo sapiens, COLO 320DM
Description: (§1) Cell viability assay was performed using CellTiter-Glo (Promega, catalgoue no. G8461) as previously described. Briefly, cells were seeded into a 384-well plate one day before adding inhibitors. Equal volumes of vehicles or drugs diluted at indicated concentration were added into each well the next day, and the cells were incubated for three days. On the third day, after equilibrating plate and CellTiter-Glo reagent at room temperature for 30 min, reagent was added into each well and incubated for 15 min at room temperature. Luminescence was measured using a Synergy 2 microplate reader. Four biological replicates were performed for each condition. Data analysis was performed with GraphPad Prism (v.9.1.0).

COLO320HSR cells = assay: Cell viability / CTG proliferation (CellTiter-Glo); type: cell-based, human; conditions: Homo sapiens, COLO-320-HSR; Extended Data Fig. 8
Description: as §1

SNU16 cells = assay: Cell viability (CellTiter-Glo); type: cell-based, human; conditions: Homo sapiens, SNU-16; Extended Data Fig. 8; read-out: IC50 SNU16
Description: as §1, with “(v.9.1.0). […]” for “(v.9.1.0).”

GBM39ec cells = assay: Cell viability (CellTiter-Glo); type: cell-based, human; conditions: Homo sapiens; Extended Data Fig. 8
Description: as §1

GBM39HSR cells = assay: Cell viability (CellTiter-Glo); type: cell-based, human; conditions: Homo sapiens; Extended Data Fig. 8
Description: as §1

pCHK1-S345 in HT29 cells = assay: AlphaLISA SureFire Ultra p-CHK1 (Ser345) assay in HT29 cells; type: cell-based; conditions: Homo sapiens, HT-29, 16 h, read-out: CHK1 cellular potency AlphaLisa (IC50)
Description: Compound activity in cells was measured using an AlphaLISA SureFire Ultra p-CHK1 (Ser345) assay (Perkin Elmer, catalogue no. ALSU-PCHK1-A10K). HT29 cells were cultured in McCoy 5 A medium with 10% FBS and 1% penicillin-streptomycin and seeded to 96-well plates (Corning, catalogue no. 3599). Compounds were serially diluted in DMSO over a 10-point dose range with 3-fold dilution, and compound solution was added to each well containing cells. Plates were centrifuged at 1,000 rpm for 30 s. Plates were incubated at 37 °C for 16 h. Supernatant was removed by flicking the plate against a paper towel. Wells were washed once with PBS solution. To each well was added freshly prepared lysis buffer and plates were agitated on a plate shaker at 400 rpm for 30 min. The 96-well cell plates were centrifuged at 1,500 rpm for 1 min. From each well was transferred 10 µl of the lysates to a 384-well Optiplate (Perkin Elmer, catalogue no. 6007290). To each well was added Acceptor Mix (5 µl) and the plates were sealed and wrapped in foil. Plates were agitated on a plate shaker for 2 min, then incubated at room temperature for 1 h. To each well was added Donor Mix (5 µl) and the plates were sealed and wrapped in foil. Plates were agitated on a plate shaker for 2 min, then incubated at room temperature for 1 h. AlphaLisa signal was read on an EnVision multimode plate reader (Perkin Elmer). […]

[1] = test system: γH2AX in COLO320DM and COLO320HSR cells; assay: γH2AX IF combined with EdU labelling; type: cell-based, human; conditions: XL413 combined with CHIR-124
Description: (§2) Coverslips were coated with 100 µg ml^−^1 poly-L-lysine overnight or 10 µg ml^−^1 laminin for 1 h at 37 °C before seeding cells. Asynchronized cells were seeded onto slides and subject to different treatment. Where indicated, EdU was added to each well at 10 µg ml^−^1 30 min before collecting samples. IF and dual-IF DNA FISH staining were performed as described before. Briefly, slides were fixed with ice-cold 4% paraformaldehyde (PFA) for 15 min, followed by permeabilization with 0.5% Triton X-100 in PBS for 15 min at room temperature. Samples were blocked with 3% BSA in PBS for 1 h at room temperature before incubation with primary antibody diluted in blocking buffer at 4 °C overnight. Dilution ratio for first antibodies was as follows: γH2Ax, 1:500; pRPA2-S33, 1:1,000; pCHK1S345, 1:250; 53BP1, 1:500; cyclin A, 1:100; pRNAPII S2/S4, 1:1,000. […]
(§3) Image analysis and quantification were performed using the open-source software CellProfiler (v.4.2.1). For foci number analysis, DAPI staining, IF staining and DNA FISH channel were analysed through automatic thresholding and segmentation to cell nuclei, pRPA2S33/γH2AX foci and DNA FISH foci respectively. […] For fluorescence intensity measurement, nuclei were called based on DAPI channel through automatic thresholding and segmentation; mean fluorescence intensity was retrieved by measuring mean fluorescence intensity within each nucleus.

[2] = test system: RS on HSR in GBM39HSR cells; assay: pRPA2-S33 IF combined with EGFR FISH; type: cell-based, human
Description: as §2, §3

[3] = test system: RS on ecDNA in GBM39ec cells; assay: pRPA2-S33 IF combined with EGFR FISH; type: cell-based, human
Description: as §2, §3

[4] = test system: ssDNA on ecDNA amplicon in COLO320DM and COLO320HSR cells; assay: KAS-seq (ssDNA mapping); type: cell-based, human; conditions: triptolide treatment
Description: KAS-seq experiments were carried out as previously described[12] with modifications. Briefly, cell culture media was supplemented with 5 mM N3-kethoxal (final concentration), and cells were incubated for 10 min at 37 °C in a six-well plate. Genomic DNA was then extracted using the Monarch gDNA Purification Kit (NEB T3010S) following the standard protocol but with elution using 50 µl 25 mM K3BO3 at pH 7.0. Click reaction was carried out by mixing 87.5 µl purified DNA, 2.5 µl 20 mM DBCO-PEG4-biotin (dimethylsulfoxide (DMSO) solution, Sigma, catalogue no. 760749) and 10 µl 10× PBS in a final volume of 100 µl. The reaction was then incubated at 37 °C for 90 min. DNA was purified using AMPure XP beads by adding 50 µl beads per 100 µl reaction, washing beads on a magnetic stand twice with 80% EtOH and eluting in 130 µl 25 mM K3BO3. Purified DNA was then sheared using a Covaris E220 instrument down to around 200–400 bp size. […]
Libraries were sequenced in a paired-end format on an Illumina NextSeq instrument using NextSeq 550 High-Output Kits (2 × 36 cycles). […] Duplicate reads were removed using picard-tools (v.1.99). […]

[5] = test system: pRPA2-S33 foci in COLO320HSR cells; assay: pRPA2-S33 IF (replication stress); type: cell-based, human
Description: as §2, §3

[6] = test system: pRPA2-S33 foci in COLO320DM cells; assay: pRPA2-S33 IF (replication stress); type: cell-based, human
Description: as §2, §3

[7] = test system: pRNAPII S2/S4 in COLO320DM and COLO320HSR cells; assay: Active RNA polymerase II IF; type: cell-based, human; conditions: triptolide treatment
Description: as §2, §3

[8] = Extended Data Fig. 8, read-out: IC50 COLO320DM

Structure (SMILES): COc1cc2nc(-c3cc(F)ccc3O)nc(N[C@@H]3CNC[C@H]3C(C)(C)O)c2cc1OC [CCT241533]
- differential inhibitory effect between ecDNA+ and ecDNA− isogenic cell lines (COLO320DM cells; COLO320DM vs COLO320HSR viability, Extended Data Fig. 8a): no differential inhibitory effect
- IC50 (COLO320DM cells; [8]): 3.73 µM
- IC50 (COLO320HSR cells): 4.89 µM

Structure (SMILES): COc1cccc(OCCCN)c1-c1cc(Nc2cnc(C#N)cn2)n[nH]1 [Ly2606368]
- IC50 (SNU16 cells): 0.00848 µM
- IC50 (COLO320DM cells; [8]): 0.0341 µM
- IC50 (COLO320HSR cells): 0.0781 µM
- IC50 (GBM39ec cells): 0.0488 µM
- IC50 (GBM39HSR cells): 0.0661 µM

Structure (SMILES): N#Cc1cnc(Nc2cc(NC[C@H]3CNCCO3)c(C(F)(F)F)cn2)cn1 [SRA737]
- IC50 (COLO320DM cells; COLO320DM cells, read-out: CTG proliferation ecDNA+ (IC50)): 1.01 µM
- IC50 (COLO320DM cells; [8]): 1.11 µM
- IC50 (COLO320HSR cells): 24.7 µM
- IC50 (pCHK1-S345 in HT29 cells): 1.5 µM

Structure (SMILES): O=c1[nH]c(C2CCCN2)nc2c1oc1ccc(Cl)cc12 (stereo not shown) [XL413]
- effect on DNA damage induced by CHK1i (γH2AX IF) [1]: partially blocked

Structure (SMILES): CC(C)[C@]12O[C@H]1[C@@H]1O[C@]13[C@]1(O[C@H]1C[C@H]1C4=C(CC[C@@]13C)C(=O)OC4)[C@@H]2O [triptolide]
- RS on HSR (pRPA2-S33 IF and EGFR FISH) [2]: no obvious difference
- RS on ecDNA (pRPA2-S33 IF and EGFR FISH) [3]: significantly decreased
- ssDNA signals across the ecDNA amplicon (KAS-seq) [4]: drastic reduction
- pRPA2-S33 foci [5]: negligible effect
- pRPA2-S33 foci [6]: significantly decreased
- transcriptional activity (active RNA polymerase II by IF) [7]: significantly decreased
